Assay results taken from ChEMBL document CHEMBL5230100, “Novel quinazoline-based EGFR kinase inhibitors: A review focussing on SAR and molecular docking studies (2015-2019)” (Eur J Med Chem, 2020).
“And” between values parts separate entries of the source, which are not always exact repeats. Identical values can stand only once.

Experiments:
MCF7 = experiment: Antiproliferative activity against human MCF7 cells assessed as cell growth inhibition incubated for 72 hrs by MTT assay; assay type: functional, cell-based; settings: MCF7, 72 h
A549 [1] = experiment: cells; assay type: functional, cell-based; settings: Homo sapiens, A549, 72 h
Description: Antiproliferative activity against human A549 cells assessed as cell growth inhibition incubated for 72 hrs by MTT assay

HT-29 = experiment: Antiproliferative activity against human HT-29 cells assessed as cell growth inhibition incubated for 72 hrs by MTT assay; assay type: functional, cell-based
MRC5 = experiment: Antiproliferative activity against human MRC5 cells assessed as cell growth inhibition incubated for 72 hrs by MTT assay; assay type: functional, cell-based; settings: MRC5, 72 h
NCI-H460 = experiment: Antiproliferative activity against human NCI-H460 cells assessed as cell growth inhibition incubated for 72 hrs by MTT assay; assay type: functional, cell-based; settings: NCI-H460, 72 h
MDA-MB-231 [2] = experiment: cells; settings: Homo sapiens, MDA-MB-231, 72 h
Description: Antiproliferative activity against human MDA-MB-231 cells assessed as cell growth inhibition incubated for 72 hrs by MTT assay

A549 [3] = experiment: cells; assay type: functional, cell-based; settings: Homo sapiens, A549, 48 h
Description: Antiproliferative activity against human A549 cells assessed as cell growth inhibition incubated for 48 hrs by MTT assay

[4] = target: T1, Epidermal growth factor receptor (Homo sapiens, UniProt P00533)
A-431 [5] = experiment: cells; assay type: functional, cell-based; settings: Homo sapiens, A-431, 48 h
Description: Antiproliferative activity against human A-431 cells assessed as cell growth inhibition incubated for 48 hrs by MTT assay

MDA-MB-231 [6] = experiment: Antiproliferative activity against human MDA-MB-231 cells assessed as cell growth inhibition incubated for 48 hrs by MTT assay; assay type: functional, cell-based; settings: MDA-MB-231, 48 h
PC-9 = experiment: cells; assay type: functional, cell-based; settings: Homo sapiens, PC-9, 72 h
Description: Antiproliferative activity against human PC-9 cells assessed as cell growth inhibition incubated for 72 hrs by SRB assay

[7] = target: Epidermal growth factor receptor (Homo sapiens, UniProt P00533, 746-750DEL)
A-431 [8] = experiment: Antiproliferative activity against human A-431 cells assessed as cell growth inhibition incubated for 72 hrs by SRB assay; assay type: functional, cell-based; settings: A-431, 72 h
[9] = MRT (0 to 24 hrs) in Sprague-Dawley rat plasma at 10 mg/kg, iv by LC-MS/MS analysis; assay type: ADME, organism-based
[10] = AUClast in Sprague-Dawley rat plasma at 10 mg/kg, iv by LC-MS/MS analysis; assay type: ADME, organism-based; parameters: dose 10 mg/kg, route iv
[11] = AUC (0 to infinity) in Sprague-Dawley rat plasma at 10 mg/kg, iv by LC-MS/MS analysis; assay type: ADME, organism-based; parameters: dose 10 mg/kg, route iv
[12] = target: T2, Receptor tyrosine-protein kinase erbB-2 (Homo sapiens, UniProt P04626); experiment: Inhibition of human HER2
[13] = target: T1, Epidermal growth factor receptor; remark: listed apart in the source
[14] = target: Vascular endothelial growth factor receptor 2 (Homo sapiens, UniProt P35968)
Description: Inhibition of VEGFR2 (unknown origin)

K562 = experiment: Antiproliferative activity against human K562 cells assessed as cell growth inhibition incubated for 72 hrs by MTT assay; assay type: functional, cell-based; settings: K562, 72 h
HL-60 = experiment: Antiproliferative activity against human HL-60 cells assessed as cell growth inhibition incubated for 72 hrs by MTT assay; assay type: functional, cell-based
A549 [15] = experiment: Anticancer activity against human A549 cells assessed as cell growth inhibition incubated for 24 hrs by MTT assay; assay type: functional, cell-based; settings: A549, 24 h
[16] = target: T1, Epidermal growth factor receptor; experiment: Inhibition of human EGFR incubated for 1 hrs in presence of ATP by ELISA assay
[17] = target: T2, Receptor tyrosine-protein kinase erbB-2
PC-3 = experiment: Antiproliferative activity against human PC-3 cells assessed as cell growth inhibition incubated for 72 hrs by MTT assay; assay type: functional, cell-based; settings: PC-3, 72 h
[18] = target: Epidermal growth factor receptor (Homo sapiens, UniProt P00533, T790M/L858R); experiment: Inhibition of EGFR L858R/T790M mutant (unknown origin) incubated for 10 mins in presence of ATP by mobility shift assay
[19] = target: T1, Epidermal growth factor receptor; experiment: Inhibition of EGFR (unknown origin) incubated for 10 mins in presence of ATP by mobility shift assay
HepG2 [20] = experiment: Antiproliferative activity against human HepG2 cells assessed as cell growth inhibition incubated for 72 hrs by MTT assay; assay type: functional, cell-based; settings: HepG2, 72 h
A-431 [21] = experiment: cells; assay type: functional, cell-based; settings: Homo sapiens, A-431, 72 h
Description: Antiproliferative activity against human A-431 cells assessed as cell growth inhibition incubated for 72 hrs by MTT assay

cells = assay type: functional, cell-based; settings: Homo sapiens, HBE, 72 h
Description: Antiproliferative activity against human HBE cells assessed as cell growth inhibition incubated for 72 hrs by MTT assay

[22] = Half life in human liver microsomes by LC-MS/MS analysis; assay type: ADME
[23] = Volume of distribution at steady state in Sprague-Dawley rat at 10 mg/kg, iv by LC-MS/MS analysis; assay type: ADME, organism-based; settings: in vivo
[24] = Half life in Sprague-Dawley rat plasma at 10 mg/kg, iv by LC-MS/MS analysis; assay type: ADME, organism-based; settings: in vivo
A549 [25] = experiment: Induction of apoptosis in human A549 cells assessed as late apoptotic cells measured after 48 hrs by Annexin V-FITC/ Propidium iodide staining based flow cytometry relative to control; assay type: functional
A549 [26] = experiment: Radiosensitizing activity against human A549 cells assessed as radiosensitization ratio by MTT assay; assay type: functional
HepG2 [27] = experiment: cells; assay type: functional, cell-based; settings: Homo sapiens, HepG2, 48 h
Description: Antiproliferative activity against human HepG2 cells assessed as cell growth inhibition incubated for 48 hrs by MTT assay

SK-OV-3 = experiment: cells; assay type: functional, cell-based; settings: Homo sapiens, SK-OV-3, 48 h
Description: Antiproliferative activity against human SK-OV-3 cells assessed as cell growth inhibition incubated for 48 hrs by MTT assay

CNE = experiment: cells; assay type: functional, cell-based; settings: Homo sapiens, 48 h
Description: Antiproliferative activity against human CNE cells assessed as cell growth inhibition incubated for 48 hrs by MTT assay

NCI-H1975 = experiment: Antiproliferative activity against human NCI-H1975 cells assessed as cell growth inhibition incubated for 72 hrs by MTT assay; assay type: functional, cell-based; settings: NCI-H1975, 72 h
[28] = target: Epidermal growth factor receptor (Homo sapiens, UniProt P00533, L858R/T790M)
HCC827 = experiment: cells; assay type: functional, cell-based; settings: Homo sapiens, HCC827, 72 h
Description: Antiproliferative activity against human HCC827 cells assessed as cell growth inhibition incubated for 72 hrs by MTT assay

T1 sequence (P00533 whole entry): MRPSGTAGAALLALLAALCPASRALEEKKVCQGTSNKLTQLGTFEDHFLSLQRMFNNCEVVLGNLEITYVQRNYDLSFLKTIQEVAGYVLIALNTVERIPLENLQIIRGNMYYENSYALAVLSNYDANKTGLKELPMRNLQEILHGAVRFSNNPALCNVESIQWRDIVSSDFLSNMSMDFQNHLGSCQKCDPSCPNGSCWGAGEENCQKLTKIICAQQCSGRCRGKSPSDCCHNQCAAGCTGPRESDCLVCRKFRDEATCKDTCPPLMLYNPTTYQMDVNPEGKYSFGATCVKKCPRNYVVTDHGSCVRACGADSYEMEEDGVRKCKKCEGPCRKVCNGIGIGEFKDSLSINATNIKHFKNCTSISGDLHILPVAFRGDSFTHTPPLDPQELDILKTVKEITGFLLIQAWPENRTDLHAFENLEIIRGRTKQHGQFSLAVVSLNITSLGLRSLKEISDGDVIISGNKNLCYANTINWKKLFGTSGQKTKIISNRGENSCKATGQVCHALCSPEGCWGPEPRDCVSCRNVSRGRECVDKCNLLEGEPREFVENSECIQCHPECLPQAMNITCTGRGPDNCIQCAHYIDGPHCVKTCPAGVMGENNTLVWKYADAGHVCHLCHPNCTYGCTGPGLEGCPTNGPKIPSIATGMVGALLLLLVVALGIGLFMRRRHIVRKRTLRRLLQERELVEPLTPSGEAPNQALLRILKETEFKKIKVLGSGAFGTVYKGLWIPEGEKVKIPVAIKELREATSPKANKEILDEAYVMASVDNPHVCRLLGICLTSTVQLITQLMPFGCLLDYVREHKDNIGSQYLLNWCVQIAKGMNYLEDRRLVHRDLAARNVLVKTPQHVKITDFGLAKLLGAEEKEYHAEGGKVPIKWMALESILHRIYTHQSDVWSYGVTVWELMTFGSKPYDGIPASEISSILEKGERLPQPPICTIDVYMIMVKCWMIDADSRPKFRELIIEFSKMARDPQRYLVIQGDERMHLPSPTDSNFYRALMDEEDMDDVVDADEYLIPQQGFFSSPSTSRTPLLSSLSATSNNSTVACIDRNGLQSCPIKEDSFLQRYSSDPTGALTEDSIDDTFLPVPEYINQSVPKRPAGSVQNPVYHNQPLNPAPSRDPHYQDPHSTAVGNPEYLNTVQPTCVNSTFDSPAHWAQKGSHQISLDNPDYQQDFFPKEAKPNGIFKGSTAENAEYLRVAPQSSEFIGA
T2 sequence (P04626 whole entry): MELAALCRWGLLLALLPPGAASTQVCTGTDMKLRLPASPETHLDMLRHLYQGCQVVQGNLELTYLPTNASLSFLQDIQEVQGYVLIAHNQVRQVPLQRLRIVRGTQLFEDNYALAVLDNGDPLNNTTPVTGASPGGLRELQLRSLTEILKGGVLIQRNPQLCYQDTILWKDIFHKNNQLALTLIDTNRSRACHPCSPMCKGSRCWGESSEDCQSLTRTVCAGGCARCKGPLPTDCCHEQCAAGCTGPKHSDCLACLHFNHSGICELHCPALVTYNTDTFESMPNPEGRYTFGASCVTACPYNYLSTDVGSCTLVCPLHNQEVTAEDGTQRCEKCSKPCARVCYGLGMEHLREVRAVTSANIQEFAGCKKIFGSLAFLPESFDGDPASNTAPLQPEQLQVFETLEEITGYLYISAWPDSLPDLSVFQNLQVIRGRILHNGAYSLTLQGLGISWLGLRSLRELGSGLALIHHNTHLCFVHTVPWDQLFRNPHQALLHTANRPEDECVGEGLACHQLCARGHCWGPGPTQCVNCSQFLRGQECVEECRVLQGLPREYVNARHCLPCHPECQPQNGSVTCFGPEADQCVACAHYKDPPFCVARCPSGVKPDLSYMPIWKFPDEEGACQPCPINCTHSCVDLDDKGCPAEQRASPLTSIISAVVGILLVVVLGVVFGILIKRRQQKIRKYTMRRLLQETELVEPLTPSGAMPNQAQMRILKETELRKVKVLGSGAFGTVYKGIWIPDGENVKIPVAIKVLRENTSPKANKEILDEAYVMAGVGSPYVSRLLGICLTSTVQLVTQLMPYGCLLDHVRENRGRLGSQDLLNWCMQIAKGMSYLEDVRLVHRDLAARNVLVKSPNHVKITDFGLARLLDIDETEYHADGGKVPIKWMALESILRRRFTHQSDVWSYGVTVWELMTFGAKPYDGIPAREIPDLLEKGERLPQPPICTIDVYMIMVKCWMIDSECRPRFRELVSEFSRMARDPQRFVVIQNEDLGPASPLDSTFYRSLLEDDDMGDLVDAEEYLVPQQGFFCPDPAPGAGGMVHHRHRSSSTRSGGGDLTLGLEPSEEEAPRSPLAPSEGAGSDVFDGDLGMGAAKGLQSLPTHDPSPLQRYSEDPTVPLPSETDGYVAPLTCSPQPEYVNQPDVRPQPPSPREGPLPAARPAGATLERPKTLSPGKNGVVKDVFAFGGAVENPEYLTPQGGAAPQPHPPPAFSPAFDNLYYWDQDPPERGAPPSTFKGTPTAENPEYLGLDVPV
Vascular endothelial growth factor receptor 2, sequence (P35968 whole entry): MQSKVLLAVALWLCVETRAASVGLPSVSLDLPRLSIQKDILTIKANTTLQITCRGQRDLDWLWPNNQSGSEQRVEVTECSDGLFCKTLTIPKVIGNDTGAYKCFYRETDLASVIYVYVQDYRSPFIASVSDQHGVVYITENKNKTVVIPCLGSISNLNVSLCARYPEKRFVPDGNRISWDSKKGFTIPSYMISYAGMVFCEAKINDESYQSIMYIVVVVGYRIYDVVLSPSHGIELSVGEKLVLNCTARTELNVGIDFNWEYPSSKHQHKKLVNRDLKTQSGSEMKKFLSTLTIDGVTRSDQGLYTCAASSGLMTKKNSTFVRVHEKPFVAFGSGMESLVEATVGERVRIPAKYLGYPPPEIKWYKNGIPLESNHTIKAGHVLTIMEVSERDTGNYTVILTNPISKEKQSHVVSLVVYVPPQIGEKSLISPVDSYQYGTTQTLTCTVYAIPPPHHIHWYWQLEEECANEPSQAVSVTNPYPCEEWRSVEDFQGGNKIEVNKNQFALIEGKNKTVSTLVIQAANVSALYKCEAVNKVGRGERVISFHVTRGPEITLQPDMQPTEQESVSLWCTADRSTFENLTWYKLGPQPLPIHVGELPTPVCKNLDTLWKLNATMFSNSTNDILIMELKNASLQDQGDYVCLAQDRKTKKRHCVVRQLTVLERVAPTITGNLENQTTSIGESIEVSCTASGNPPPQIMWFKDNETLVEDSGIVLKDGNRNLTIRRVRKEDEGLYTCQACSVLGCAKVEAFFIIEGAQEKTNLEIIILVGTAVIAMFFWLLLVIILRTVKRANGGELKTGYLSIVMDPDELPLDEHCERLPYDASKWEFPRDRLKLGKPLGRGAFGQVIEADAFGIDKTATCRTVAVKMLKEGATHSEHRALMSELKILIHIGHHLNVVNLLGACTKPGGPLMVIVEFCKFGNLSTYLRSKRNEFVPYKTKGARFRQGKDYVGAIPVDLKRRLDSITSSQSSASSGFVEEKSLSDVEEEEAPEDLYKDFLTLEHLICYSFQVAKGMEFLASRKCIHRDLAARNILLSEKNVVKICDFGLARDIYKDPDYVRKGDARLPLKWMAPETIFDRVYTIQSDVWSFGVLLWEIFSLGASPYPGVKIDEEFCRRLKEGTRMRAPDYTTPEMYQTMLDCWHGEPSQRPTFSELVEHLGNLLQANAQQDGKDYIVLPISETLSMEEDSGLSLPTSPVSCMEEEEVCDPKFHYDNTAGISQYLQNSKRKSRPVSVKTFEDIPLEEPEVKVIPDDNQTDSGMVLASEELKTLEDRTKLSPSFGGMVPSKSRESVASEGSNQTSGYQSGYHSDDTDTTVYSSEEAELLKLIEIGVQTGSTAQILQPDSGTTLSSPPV
Epidermal growth factor receptor (Homo sapiens, UniProt P00533, 746-750DEL), sequence (P00533 whole entry, looked up, stated change not applied): as the sequence (P00533 whole entry) above

`CNC(=O)c1cc(Oc2ccc(NC(=O)Nc3ccc(Cl)c(C(F)(F)F)c3)cc2)ccn1` [SORAFENIB] gave an IC50 (MCF7) of 2500 nM, an IC50 (A549 [1]) of 4470 nM and an IC50 (HT-29; Homo sapiens, HT-29, 72 h) of 2500 nM. For the same compound, the IC50 (HT-29; ht-29) was 3270 nM, the IC50 (MRC5) was 24100 nM and the IC50 (NCI-H460) was 2150 nM. The IC50 (MDA-MB-231 [2]) was 3810 nM.
`CCCN(c1ccc(F)c(Cl)c1)c1ncnc2cc(OC)c(OCCCN3CCOCC3)cc12` showed an IC50 (A549 [3]) of 10900 nM, an IC50 [4] of 21.4 nM and an IC50 (A-431 [5]) of 1680 nM. The IC50 (MDA-MB-231 [6]) was 10200 nM.
`C#Cc1cccc(Nc2ncnc3cc(OC)c(OCCCN4CCOCC4)cc23)c1` showed an IC50 (PC-9) of 100 nM, an IC50 [7] of 1.23 nM and an IC50 (A-431 [8]) of less than 100 nM. For the same compound, the MRT last [9] was 3.96 h, the AUC(0-t) [10] was 6.11 µg·h/mL and the AUC(0-inf) [11] was 6.15 µg·h/mL.
Compound `NS(=O)(=O)c1ccc(CCn2c(SCC(=O)Nc3ccc(Cl)cc3)nc3ccccc3c2=O)cc1` has an IC50 [12] of 170 nM, an IC50 [13] of 200 nM and an IC50 (MCF7) of 1040 nM. For the same compound, the IC50 [14] was 390 nM, the IC50 (K562) was 2030 nM and the IC50 (HT-29; Homo sapiens, HT-29, 72 h) was 1430 nM. The IC50 (HL-60) was 410 nM and 2030 nM and the IC50 (MRC5) was 3770 nM.
For `Cc1ccc(NC(=O)CSc2nc3cc4ccccc4cc3c(=O)n2-c2ccc(S(N)(=O)=O)cc2)cc1`, the IC50 (A549 [15]) was 105 nM, the IC50 [16] was 9 nM and the IC50 [17] was 21 nM.
`CN(C)CCn1cccc1/C=N/NC(=O)Nc1cc2c(Nc3ccc(F)c(Cl)c3)ncnc2cc1O[C@H]1CCOC1` gave an IC50 (PC-3) of 3840 nM, an IC50 [18] of 5.6 nM and an IC50 (MCF7) of 4820 nM. It also gave an IC50 (A549 [1]) of 1840 nM, an IC50 [19] of 0.05 nM and an IC50 (HepG2 [20]) of 40 nM.
With `C=CC(=O)Nc1cccc(Nc2nc(Nc3ccc(N4CCN(C(C)=O)CC4)cc3OC)ncc2C(F)(F)F)c1` [ROCILETINIB] the IC50 (A-431 [21]) was 1290 nM, the IC50 (cells) was greater than 40000 nM and the IC50 (A549 [1]) was 6500 nM.
`COc1cc2ncnc(Nc3ccc(F)c(Cl)c3)c2cc1OCCCN1CCOCC1` [GEFITINIB] gave a t1/2 [22] of 0.3752 h, a Vdss [23] of 5.93 L/kg and an MRT last [9] of 4.54 h. The AUC(0-t) [10] was 7.72 µg·h/mL, the t1/2 [24] was 3.85 h and the AUC(0-inf) [11] was 7.8 µg·h/mL.
In the case of `CCc1cccc(NC(=O)CSc2nc3cc4ccccc4cc3c(=O)n2-c2ccc(S(N)(=O)=O)cc2)c1`, the IC50 (A549 [15]) is reported as 727 nM.
Work on `CN(C)C/C=C/C(=O)Nc1cc2c(N3CCc4ccccc43)ncnc2cc1O[C@@H]1CCOC1` yielded an Activity (A549 [25]) of 14.59%.
Work on `Cc1ccc(Nc2ncnc3ccc(NC(=O)c4cc(OCc5ccccc5)c5c(c4)C(=O)c4cccc(OCc6ccccc6)c4C5=O)cc23)cc1` yielded a Ratio (A549 [26]) of 1.88, an IC50 (HepG2 [27]) of 34900 nM and an IC50 (A549 [3]) of 23300 nM. It also gave an IC50 (MDA-MB-231 [6]) of 3200 nM, an IC50 (SK-OV-3) of 12500 nM and an IC50 (CNE) of 2100 nM.
In the case of `C=CC(=O)Nc1ccccc1Nc1ncnc2cc(OC)c(OCCN3CCOCC3)cc12`, the IC50 (NCI-H1975) is reported as 8700 nM, the IC50 (A-431 [21]) is reported as 13400 nM and the IC50 [28] is reported as 4.3 nM. The IC50 (cells) was 34000 nM, the IC50 (A549 [1]) was 32400 nM and the IC50 (HCC827) was 650 nM.
